Tests used:
BACE1 = target: T1, BACE1 (Homo sapiens, UniProt P56817); assay: β-Secretase (BACE1) inhibition assay (FRET); type: biochemical; settings: for inhibition at 400 µM: at a concentration of 400 µM, mean ± SEM, n = 3
T1 construct: purchased Sino Biological, Beijing, China
Procedure: All ascorbic derivatives (2a–2c and 5a–5c), at a concentration of 400 µM, were evaluated for β-secretase inhibitory activities by using the FRET assay. Briefly, the reaction composing 30 µL of 0.01 unit/µL BACE1 enzyme stock solution, 20 µL of 5% DMSO of test compound, 30 µL of sodium acetate buffer (pH 4.5), and 20 µL of 125 µM β-secretase substrate IV (Calbiochem®, San Diego, CA, USA) was incubated at 37 °C for 30 min. Fluorescence was then measured at Ex = 380 nm and Em = 510 nm using a SpectraMax Gemini EM™, San Jose, CA, USA [26, 61]. β-secretase inhibitor I (Anaspec®, Fremont, CA, USA) was used as a positive control, at a concentration of 100 µM. The experiments were performed in triplicate. For the compounds exerting inhibitory activities more than 20%, an IC50 value was further determined.

[1] = Antioxidant activity assay (DPPH); settings: for Antioxidant %Inhibition (±SEM): at a concentration of 400 µM, mean ± SEM, n = 3
Procedure: […] The reaction was a mixture of 70 µL of DPPH solution (500 µM in 80% methanol), 10 µL of 80% methanol, and 20 µL of test compound. The reaction was incubated at room temperature in the dark for 30 min. The absorbance was then measured at 517 nm using Infinite 200 Pro™ (Tecan). Ascorbic acid was used as a positive control.

P19-derived neurons [2] = assay: Viability assay (XTT) on P19-derived neurons; type: cell-based; settings: 18 h, nontoxic condition, versus 0.5% DMSO, derivatives at 1 nM
Procedure: (§1) P19 cells were grown in alpha minimal essential medium (α-MEM) supplemented with 7.5% newborn calf serum (NCS), 2.5% fetal bovine serum (FBS), and 1% antibiotics–antimycotic solution in a 5% CO2 humidified atmosphere at 37 °C. Cells in monolayer cultures were maintained in exponential growth by subculturing every two days.
(§2) Exponentially grown cultures were trypsinized and dissociated into single cells. P19 cells (2 × 10^6 cells/mL) were then suspended in 10 mL α-MEM supplemented with 5% FBS, 1% antibiotics–antimycotic solution, and 0.5 µM all transretinoic acid (RA) and seeded onto a 100-mm bacteriological culture dish. The cells formed large aggregates in suspension. After four days of RA treatment, the aggregates were dissociated by 5-mL glass measuring pipette and replated on poly-L-lysine-precoated multiwell plates (the multiwell plates were coated with 50 µg/mL poly-L-lysine, dissolved in PBS overnight, and sterilized under UV light for 30 min) at 7 × 10^4 cells/mL (150 µL/well in 96-well plate) in α-MEM supplemented with 10% FBS and 1% antibiotics–antimycotic solution and incubated for 24 h. Cytosine-1-β-D-arabinoside or Ara-C (10 µM) was added at day 1 after plating, and the medium was changed every two to three days. The differentiated neuronal cells, P19-derived neurons, were used after day 14 of the differentiation process.
The assay was carried out on P19-derived neurons cultured in a 96-well plate. After 14 days of the differentiation process, the α-MEM, supplemented with 10% FBS, 10 μM Ara-C, and 1% antibiotics–antimycotic solution, was removed and DMSO solutions of the sample, diluted with α-MEM supplemented with 10% FBS and 1% antibiotics–antimycotic solution in the presence of 10 μM Ara-C, were added to produce the concentrations of 10,000, 1000, 100, 10, and 1 nM. A concentration of DMSO was added to the cultures at 0.5% v/v. […] The OD value was determined by using a microplate reader at 450 nm. Data were expressed as mean ± SEM (n = 3, each n was run in triplicate), with the medium as a control, representing 100% cell viability. […]

amyloid-β (1-42) peptide = target: T2, amyloid-β (1-42) peptide (Homo sapiens, UniProt P05067); assay: Amyloid aggregation inhibition assay (ThT); type: biochemical; settings: for inhibition at 400 µM: at a concentration of 400 µM, ThT, 48 h
T2 construct: 9 µL of 25 μM working solution of amyloid-β (1-42) peptide; purchased Anaspec, Fremont, CA, USA
Procedure: The ascorbic derivatives ware evaluated for activities of amyloid β aggregation inhibition at a concentration of 400 µM. Briefly, in each well of transparent plate, 9 µL of 25 μM working solution of amyloid-β (1-42) peptide and 1 µL of test compound were gently mixed and then incubated in the dark at 37 °C for 48 h. After the incubation, 200 µL of 5 µM ThT (Sigma®, Saint Louis, MO, USA) in 50 mM Tris buffer (pH 7.4) was added to each well. Fluorescence was then measured at Ex = 446 nm and Em = 480 nm using a SpectraMax Gemini EM™, San Jose, CA, USA [26, 62]. Curcumin was used as a positive control, at a concentration of 100 µM.

iNOS = iNOS mRNA expression in LPS-activated RAW 264.7 (RT-qPCR); type: cell-based, murine; settings: 10 and 100 nM, 1 h pretreatment before LPS, n = 3, p < 0.05
Procedure: (§3) Cell lines that reached 80% confluence within 48 h were selected for further gene expression study. […] The experiment was conducted in triplicate. After the cell lines were treated with the testing samples for one hour, 2 μg/mL LPS (lipopolysaccharide; Sigma-Aldrich, St. Louis, MO, USA) was added to the cell lines and then maintained in an incubator for another 24 h to induce the cell inflammatory process. […] Total RNA quality and quantity were examined by NanoDrop. An equivalent of 2000 ng total RNA from each sample was then reverse-transcribed to produce first-strand complementary DNA (cDNA) using a Tetro cDNA Synthesis Kit (Bioline USA Inc., Memphis, TN, USA), according to the manufacturer's instruction. Briefly, the total RNA template was mixed with 4 μ[…] buffer, 1 μL oligo dT(18), 1 μL dNTP mix […], 1 μL Rnase inhibitor, and 1 μL reverse transcriptase. Diethylpyrocarbonate (DEPC)-treated water was then added to a mixture to adjust the volume to a final 20-μl reaction. An incubation process to produce first strand cDNA was carried out in a thermal cycler (SensoQuest Labcycler). Primer annealing and strand extending occurred at 45 °C for 30 min and a reverse transcriptase was finally heat-inactivated at 85 °C for 5 min. The corresponding cDNA products were then used as a template in a quantitative polymerase chain reaction (qPCR) to study COX-2 and iNOS gene expressions, with GAPDH as a reference gene. The primer sequences for qPCR quantifications were as follows: COX-2: [NT] (reverse); iNOS: [NT] (reverse), and GAPDH: [NT] (reverse). […] Then, 20 μL qPCR reaction was prepared by mixing a 1-μL cDNA template with 0.8 μL forward primer […], 0.8 μL reverse primer […], 10 μL SYBR, and 7.4 μL DI water. Gene expression was measured in a 96-well plate using a BIO-RAD iCycler IQ^TM5 detection system. qPCR reaction was initially heated to 95 °C 10 min, and then underwent 40 cycles of 95 °C 15 s and 60 °C 1 min. […] Each corresponding expression was computed as a relative fold change using the 2^-delta delta Ct method, normalized to the GAPDH gene.

COX-2 = COX-2 mRNA expression in LPS-activated RAW 264.7 (RT-qPCR); type: cell-based, murine; settings: 10 and 100 nM, 1 h pretreatment before LPS, n = 3, p < 0.05
Procedure: as §3

P19-derived neurons [3] = assay: Neuroprotective assay, serum-deprivation-induced oxidative stress (XTT); type: cell-based; settings: 1 nM, p > 0.05
Procedure: as §1
as §2, with “Cytosine-1-β-D-arabinoside or Ara-C (10 µM) was added at day 1 after plating, and the medium was changed every two to three days. The differentiated neuronal cells, P19-derived neurons, were used after day 14 of the differentiation process.” left out
The assay was carried out with P19-derived neurons cultured in a 96-well plate by using the serum-deprivation method. […] Data were expressed as mean ± SEM (n = 3, each n was run in triplicate), with the medium as a control, representing 100% cell viability. […]

T1 sequence (P56817 46-501): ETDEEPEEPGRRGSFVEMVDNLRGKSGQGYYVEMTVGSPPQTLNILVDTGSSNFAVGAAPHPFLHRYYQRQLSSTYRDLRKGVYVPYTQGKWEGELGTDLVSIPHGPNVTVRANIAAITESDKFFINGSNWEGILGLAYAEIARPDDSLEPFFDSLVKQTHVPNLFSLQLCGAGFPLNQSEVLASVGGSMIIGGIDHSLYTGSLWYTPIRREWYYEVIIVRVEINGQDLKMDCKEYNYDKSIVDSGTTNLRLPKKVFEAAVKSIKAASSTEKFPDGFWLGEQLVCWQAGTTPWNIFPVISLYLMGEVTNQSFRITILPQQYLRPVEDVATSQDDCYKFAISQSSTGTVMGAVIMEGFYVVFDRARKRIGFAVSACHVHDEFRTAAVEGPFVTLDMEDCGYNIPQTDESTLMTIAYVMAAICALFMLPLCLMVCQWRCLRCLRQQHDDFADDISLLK
T2 sequence (P05067 672-713 limits assumed): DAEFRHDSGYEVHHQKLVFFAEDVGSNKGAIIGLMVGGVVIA

| Compound | inhibition at 400 µM (BACE1) | IC50 [1] | IC50 (amyloid-β (1-42) peptide) | inhibition at 400 µM (amyloid-β (1-42) peptide; mean ± SEM, n = 3) | inhibition at 100 µM (amyloid-β (1-42) peptide; positive control at 100 μM, mean ± SEM, n = 3) | IC50 (BACE1) | melting point | Antioxidant %Inhibition (±SEM) [1] | cytotoxicity / cell viability of P19-derived neurons (P19-derived neurons [2]) | expression of iNOS gene compared to 0.001% DMSO control (iNOS) | expression of COX-2 gene compared to 0.001% DMSO control (COX-2) | neuroprotective activity compared with quercetin (positive control) (P19-derived neurons [3]) |
| --- | --- | --- | --- | --- | --- | --- | --- | --- | --- | --- | --- | --- |
| O=C1O[C@H]([C@@H](O)CO)C(O)=C1O [Ascorbic acid, reference compound] | 7.84 ± 1.75% | 21.3 µM | 146 µM | 63.4 ± 0.87% |  |  |  | 94.85 ± 0.62% | decreased | downregulate | downregulate |  |
| O=C1O[C@H]([C@@H](O)COCc2cn(Cc3ccc(O)cc3)nn2)C(O)=C1O [Compound 2a, (R)-3,4-Dihydroxy-5-((S)-1-hydroxy-2-((1-(4-hydroxybenzyl)-1H-1,2,3-triazol-4-yl)metho-xy)ethyl)furan-2(5H)-one] | 6.8 ± 2.69% | 206 µM | 319 µM | 53 ± 0.6% |  |  |  | 66.54 ± 0.56 % | significantly higher viability than 0.5% DMSO |  |  | no statistical differences |
| COc1cc(/C=C/C(=O)CC(=O)/C=C/c2ccc(O)c(OC)c2)ccc1O [Curcumin, reference compound] |  |  |  |  | 94.5 ± 1.15% |  |  |  |  |  |  |  |
| COc1cc(Cn2cc(COC[C@H](O)[C@H]3OC(=O)C(O)=C3O)nn2)ccc1O [Compound 2b, (R)-3,4-Dihydroxy-5-((S)-1-hydroxy-2-((1-(4-hydroxy-3-methoxybenzyl)-1H-1,2,3-triazol-4-yl)methoxy)ethyl)furan-2(5H)-one] | 6.29 ± 0.98% | 156 µM | 319 µM | 51 ± 2.12% |  |  |  | 62.81 ± 2.62 % |  |  |  | no statistical differences |
| O=C1O[C@H]([C@@H](O)COCc2cn(CC3Cc4c([nH]c5ccccc45)CN3)nn2)C(O)=C1O (stereo partly drawn) [Compound 2c, (R)-3,4-Dihydroxy-5-((S)-1-hydroxy-2-((1-((2,3,4,9-tetrahydro-1H-pyrido[3,4-b]indol-3-yl)-methyl)-1H-1,2,3-triazol-4-yl)methoxy)ethyl)furan-2(5H)-one] | 23.5 ± 1.66% | 72.3 µM | 92.3 µM | 71.8 ± 1.42% |  | 726 µM | 172 to 174 °C | 94.67 ± 0.50% |  | downregulate | downregulate |  |

More lines, main results first:

| inhibition at 400 µM (BACE1) | IC50 [1] | IC50 (amyloid-β (1-42) peptide) | inhibition at 400 µM (amyloid-β (1-42) peptide; mean ± SEM, n = 3) | inhibition at 100 µM (amyloid-β (1-42) peptide; positive control at 100 μM, mean ± SEM, n = 3) | IC50 (BACE1) | melting point | Compound | Antioxidant %Inhibition (±SEM) [1] | cytotoxicity / cell viability of P19-derived neurons (P19-derived neurons [2]) | expression of iNOS gene compared to 0.001% DMSO control (iNOS) | expression of COX-2 gene compared to 0.001% DMSO control (COX-2) | neuroprotective activity compared with quercetin (positive control) (P19-derived neurons [3]) |
| --- | --- | --- | --- | --- | --- | --- | --- | --- | --- | --- | --- | --- |
|  | 103 µM |  | 19.6 ± 1.83% |  |  |  | COc1cc(Cn2cc(COC3=C(O)C(=O)O[C@@H]3[C@@H](O)CO)nn2)ccc1O [Compound 5b, (R)-5-((S)-1,2-Dihydroxyethyl)-3-hydroxy-4-((1-(4-hydroxy-3-methoxybenzyl)-1H-1,2,3-triazol-4-yl)methoxy)furan-2(5H)-one] | 77.37 ± 1.60 % |  |  |  |  |
|  | 91.2 µM |  | 34.5 ± 3.62% |  |  |  | O=C1O[C@H]([C@@H](O)CO)C(OCc2cn(Cc3ccc(O)cc3)nn2)=C1O [Compound 5a, (R)-5-((S)-1,2-Dihydroxyethyl)-3-hydroxy-4-((1-(4-hydroxybenzyl)-1H-1,2,3-triazol-4-yl)-methoxy)furan-2(5H)-one] | 78.42 ± 0.93 % |  |  |  |  |
| 27.3 ± 1.41% | 62.9 µM | 136 µM | 68.26 ± 0.67% |  | 593 µM | 144 to 146 °C | O=C1O[C@H]([C@@H](O)CO)C(OCc2cn(CC3Cc4c([nH]c5ccccc45)CN3)nn2)=C1O (stereo partly drawn) [Compound 5c, (R)-5-((S)-1,2-Dihydroxyethyl)-3-hydroxy-4-((1-((2,3,4,9-tetrahydro-1H-pyrido[3,4-b]indol-3-yl)methyl)-1H-1,2,3-triazol-4-yl)methoxy)furan-2(5H)-one] | 85.84 ± 2.43% | significantly higher viability than 0.5% DMSO | downregulate | downregulate |  |

Reference: paper PMC7999550, “Novel Multifunctional Ascorbic Triazole Derivatives for Amyloidogenic Pathway Inhibition, Anti-Inflammation, and Neuroprotection” (Molecules, 2021)
